Source: ChEMBL document CHEMBL5465560, “Selectivity Literature for EUbOPEN Chemogenomic Library” (2024)

Assays:
[1] = molecular target: MAP kinase-interacting serine/threonine-protein kinase 2 (Homo sapiens, UniProt Q9HBH9); conditions: at 10 µM
[2] = molecular target: T1, Tyrosine-protein kinase JAK3 (Homo sapiens) (UniProt P52333); experiment: Selectivity interaction (KinomeScan (DiscoverX)) EUB0000092b JAK3; conditions: at 10 µM
T1 sequence (whole entry): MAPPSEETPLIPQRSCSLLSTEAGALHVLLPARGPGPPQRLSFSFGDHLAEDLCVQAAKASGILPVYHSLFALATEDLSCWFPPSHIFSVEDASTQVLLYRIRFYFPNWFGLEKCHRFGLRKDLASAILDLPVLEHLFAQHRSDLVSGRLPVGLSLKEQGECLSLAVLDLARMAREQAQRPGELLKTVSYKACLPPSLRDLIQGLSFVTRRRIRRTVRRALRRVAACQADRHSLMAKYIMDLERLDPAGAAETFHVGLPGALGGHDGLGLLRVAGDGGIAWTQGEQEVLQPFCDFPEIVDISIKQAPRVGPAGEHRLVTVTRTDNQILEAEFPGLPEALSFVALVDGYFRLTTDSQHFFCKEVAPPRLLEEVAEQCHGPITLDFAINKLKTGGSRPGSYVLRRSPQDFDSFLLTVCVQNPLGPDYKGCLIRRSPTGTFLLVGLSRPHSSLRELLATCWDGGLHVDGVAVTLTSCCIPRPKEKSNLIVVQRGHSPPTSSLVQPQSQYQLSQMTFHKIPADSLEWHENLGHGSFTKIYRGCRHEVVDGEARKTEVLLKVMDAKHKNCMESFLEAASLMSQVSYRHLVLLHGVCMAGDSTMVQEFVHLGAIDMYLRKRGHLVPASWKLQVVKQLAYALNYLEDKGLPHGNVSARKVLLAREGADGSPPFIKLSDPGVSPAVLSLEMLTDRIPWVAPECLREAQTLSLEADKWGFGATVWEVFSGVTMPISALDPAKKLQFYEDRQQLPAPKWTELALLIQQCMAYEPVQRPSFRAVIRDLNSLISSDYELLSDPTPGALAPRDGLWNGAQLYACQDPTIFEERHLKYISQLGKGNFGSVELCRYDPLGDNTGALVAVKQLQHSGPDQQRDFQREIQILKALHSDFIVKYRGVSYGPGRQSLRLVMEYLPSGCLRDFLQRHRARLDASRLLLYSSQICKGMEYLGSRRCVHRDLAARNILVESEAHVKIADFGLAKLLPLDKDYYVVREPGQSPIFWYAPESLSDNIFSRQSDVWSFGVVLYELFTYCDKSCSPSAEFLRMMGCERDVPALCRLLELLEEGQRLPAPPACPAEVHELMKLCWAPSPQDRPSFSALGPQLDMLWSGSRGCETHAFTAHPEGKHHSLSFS

[3] = system: Tyrosine-protein kinase ABL1 (Homo sapiens), P00519 [F317L]; experiment: Selectivity interaction (KinomeScan (DiscoverX)) EUB0000655a ABL1; conditions: at 10 µM
[4] = molecular target: Ephrin type-A receptor 5 (Homo sapiens) (UniProt P54756); experiment: Selectivity interaction (ProQinase) EUB0000171b EPHA5
Sequence of Ephrin type-A receptor 5 (Homo sapiens) (P54756 whole entry): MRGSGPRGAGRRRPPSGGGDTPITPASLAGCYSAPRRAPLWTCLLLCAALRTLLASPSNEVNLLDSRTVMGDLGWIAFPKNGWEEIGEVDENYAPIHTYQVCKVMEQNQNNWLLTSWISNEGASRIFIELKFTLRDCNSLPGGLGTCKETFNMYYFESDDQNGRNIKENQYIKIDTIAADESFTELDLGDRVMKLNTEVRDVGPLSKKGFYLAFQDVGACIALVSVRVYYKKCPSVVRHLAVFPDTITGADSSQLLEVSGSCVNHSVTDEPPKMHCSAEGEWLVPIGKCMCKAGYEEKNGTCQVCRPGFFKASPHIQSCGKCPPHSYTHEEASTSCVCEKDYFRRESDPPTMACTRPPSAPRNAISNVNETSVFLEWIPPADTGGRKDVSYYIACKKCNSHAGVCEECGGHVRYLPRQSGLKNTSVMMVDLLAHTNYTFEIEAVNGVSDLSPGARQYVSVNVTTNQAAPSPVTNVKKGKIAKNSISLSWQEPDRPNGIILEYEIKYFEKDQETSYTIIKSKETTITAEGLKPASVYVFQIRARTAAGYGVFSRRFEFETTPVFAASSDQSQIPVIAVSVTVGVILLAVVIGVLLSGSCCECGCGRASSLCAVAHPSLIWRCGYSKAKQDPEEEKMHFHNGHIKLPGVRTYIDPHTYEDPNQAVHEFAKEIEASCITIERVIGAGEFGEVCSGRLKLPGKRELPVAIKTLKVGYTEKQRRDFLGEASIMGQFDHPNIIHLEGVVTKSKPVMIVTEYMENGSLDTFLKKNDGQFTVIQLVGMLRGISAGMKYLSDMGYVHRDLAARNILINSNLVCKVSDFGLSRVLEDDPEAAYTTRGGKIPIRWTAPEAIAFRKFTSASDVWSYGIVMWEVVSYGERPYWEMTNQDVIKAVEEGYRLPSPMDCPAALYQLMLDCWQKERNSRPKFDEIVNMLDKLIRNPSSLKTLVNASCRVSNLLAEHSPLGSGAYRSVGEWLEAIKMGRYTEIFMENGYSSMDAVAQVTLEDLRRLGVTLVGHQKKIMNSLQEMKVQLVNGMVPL

[5] = molecular target: T2, Phosphatidylinositol 5-phosphate 4-kinase type-2 gamma (Homo sapiens) (UniProt Q8TBX8); experiment: Selectivity interaction (Kinase panel (KiNativ target engagement assay in Jurkat cells)) EUB0001635a PIP4K2C; assay type: cell-based; conditions: Selectivity number of off-targets 0.0, Selectivity number of targets 233.0, Source Knowledge https://www.sciencedirect.com/science/article/pii/S2451945619300674?via%3Dihub, at 1 µM
T2 sequence (whole entry): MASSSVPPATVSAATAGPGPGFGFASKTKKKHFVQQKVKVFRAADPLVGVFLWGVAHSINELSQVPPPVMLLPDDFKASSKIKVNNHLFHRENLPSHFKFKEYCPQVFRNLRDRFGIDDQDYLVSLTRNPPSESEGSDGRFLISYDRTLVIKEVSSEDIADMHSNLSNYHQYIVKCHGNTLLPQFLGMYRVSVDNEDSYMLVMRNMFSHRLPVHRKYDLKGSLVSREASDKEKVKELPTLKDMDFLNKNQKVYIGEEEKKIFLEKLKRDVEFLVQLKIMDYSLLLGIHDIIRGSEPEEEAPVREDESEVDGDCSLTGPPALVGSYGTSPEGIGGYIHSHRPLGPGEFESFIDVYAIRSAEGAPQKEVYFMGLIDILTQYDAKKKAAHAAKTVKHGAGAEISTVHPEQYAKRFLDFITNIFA

[6] = molecular target: Cyclin-dependent kinase 4/cyclin D1 (Homo sapiens, UniProt P11802)
Sequence of Cyclin-dependent kinase 4/cyclin D1 (P11802 whole entry): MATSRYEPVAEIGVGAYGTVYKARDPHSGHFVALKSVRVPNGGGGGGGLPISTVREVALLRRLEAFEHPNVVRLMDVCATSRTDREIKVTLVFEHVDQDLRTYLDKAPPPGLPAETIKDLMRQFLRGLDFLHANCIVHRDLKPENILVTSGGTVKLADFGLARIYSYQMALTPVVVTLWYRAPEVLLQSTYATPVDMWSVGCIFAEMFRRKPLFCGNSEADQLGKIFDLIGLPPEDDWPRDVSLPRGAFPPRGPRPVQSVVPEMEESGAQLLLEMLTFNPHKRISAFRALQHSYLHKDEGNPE
Sequence of Cyclin-dependent kinase 4/cyclin D1 (P24385 whole entry, further chain): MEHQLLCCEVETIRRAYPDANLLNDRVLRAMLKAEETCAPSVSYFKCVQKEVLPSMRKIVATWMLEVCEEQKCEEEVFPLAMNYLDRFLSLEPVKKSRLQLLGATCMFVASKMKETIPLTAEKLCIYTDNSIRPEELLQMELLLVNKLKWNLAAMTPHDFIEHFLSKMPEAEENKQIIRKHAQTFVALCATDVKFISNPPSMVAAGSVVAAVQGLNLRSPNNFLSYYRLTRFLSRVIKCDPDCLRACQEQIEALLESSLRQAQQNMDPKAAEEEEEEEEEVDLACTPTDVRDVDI

[7] = molecular target: Ribosomal protein S6 kinase alpha-3 (Homo sapiens, UniProt P51812); experiment: Selectivity interaction (ActivX KiNativ screen (kinase selectivity in THP-1 cell lysates)) EUB0000639a RPS6KA3; assay type: subcellular; conditions: lysate, at 1 µM
[8] = molecular target: Calcium/calmodulin-dependent protein kinase type 1 (Homo sapiens) (UniProt Q14012); experiment: Selectivity interaction (ActivX KiNativ screen (kinase selectivity in THP-1 cell lysates)) EUB0000639a CAMK1; assay type: subcellular; conditions: lysate, at 0.01 µM
Sequence of Calcium/calmodulin-dependent protein kinase type 1 (Homo sapiens) (Q14012 whole entry, looked up): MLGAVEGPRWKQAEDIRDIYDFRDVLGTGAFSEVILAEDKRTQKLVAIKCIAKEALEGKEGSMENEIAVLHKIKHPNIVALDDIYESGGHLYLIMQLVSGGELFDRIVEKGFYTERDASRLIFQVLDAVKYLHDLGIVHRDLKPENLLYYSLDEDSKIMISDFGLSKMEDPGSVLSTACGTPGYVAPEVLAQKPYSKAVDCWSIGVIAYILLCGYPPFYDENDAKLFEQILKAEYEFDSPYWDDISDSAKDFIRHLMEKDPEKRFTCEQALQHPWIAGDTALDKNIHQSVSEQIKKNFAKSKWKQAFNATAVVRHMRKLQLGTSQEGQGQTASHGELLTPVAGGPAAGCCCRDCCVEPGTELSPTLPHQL

[9] = molecular target: High affinity nerve growth factor receptor (Homo sapiens, UniProt P04629); experiment: Selectivity interaction (KinomeScan (DiscoverX)) EUB0000045b NTRK1
Sequence of High affinity nerve growth factor receptor (P04629 33-796 limits assumed): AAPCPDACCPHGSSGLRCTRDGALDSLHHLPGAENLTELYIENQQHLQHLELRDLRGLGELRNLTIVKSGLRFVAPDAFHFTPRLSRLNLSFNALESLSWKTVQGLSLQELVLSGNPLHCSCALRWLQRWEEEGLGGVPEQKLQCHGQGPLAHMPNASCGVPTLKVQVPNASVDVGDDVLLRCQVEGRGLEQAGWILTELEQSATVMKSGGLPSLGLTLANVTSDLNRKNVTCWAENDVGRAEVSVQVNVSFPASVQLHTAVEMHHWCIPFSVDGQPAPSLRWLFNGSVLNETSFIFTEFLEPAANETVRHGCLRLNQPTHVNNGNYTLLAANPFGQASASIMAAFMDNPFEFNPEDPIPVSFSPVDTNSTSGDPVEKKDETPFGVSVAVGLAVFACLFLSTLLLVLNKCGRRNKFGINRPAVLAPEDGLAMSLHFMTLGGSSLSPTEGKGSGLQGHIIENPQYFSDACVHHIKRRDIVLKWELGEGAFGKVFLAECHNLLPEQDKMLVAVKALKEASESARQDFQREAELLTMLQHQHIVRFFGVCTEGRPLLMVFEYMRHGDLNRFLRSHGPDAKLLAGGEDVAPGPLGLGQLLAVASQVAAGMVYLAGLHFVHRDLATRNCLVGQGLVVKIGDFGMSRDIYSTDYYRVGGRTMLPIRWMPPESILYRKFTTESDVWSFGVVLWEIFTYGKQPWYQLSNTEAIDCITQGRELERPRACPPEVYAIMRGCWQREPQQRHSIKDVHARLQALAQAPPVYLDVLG

[10] = molecular target: Death-associated protein kinase 1 (Homo sapiens, UniProt P53355); experiment: Selectivity interaction (KinomeScan (DiscoverX)) EUB0000045b DAPK1
Sequence of Death-associated protein kinase 1 (P53355 whole entry, looked up): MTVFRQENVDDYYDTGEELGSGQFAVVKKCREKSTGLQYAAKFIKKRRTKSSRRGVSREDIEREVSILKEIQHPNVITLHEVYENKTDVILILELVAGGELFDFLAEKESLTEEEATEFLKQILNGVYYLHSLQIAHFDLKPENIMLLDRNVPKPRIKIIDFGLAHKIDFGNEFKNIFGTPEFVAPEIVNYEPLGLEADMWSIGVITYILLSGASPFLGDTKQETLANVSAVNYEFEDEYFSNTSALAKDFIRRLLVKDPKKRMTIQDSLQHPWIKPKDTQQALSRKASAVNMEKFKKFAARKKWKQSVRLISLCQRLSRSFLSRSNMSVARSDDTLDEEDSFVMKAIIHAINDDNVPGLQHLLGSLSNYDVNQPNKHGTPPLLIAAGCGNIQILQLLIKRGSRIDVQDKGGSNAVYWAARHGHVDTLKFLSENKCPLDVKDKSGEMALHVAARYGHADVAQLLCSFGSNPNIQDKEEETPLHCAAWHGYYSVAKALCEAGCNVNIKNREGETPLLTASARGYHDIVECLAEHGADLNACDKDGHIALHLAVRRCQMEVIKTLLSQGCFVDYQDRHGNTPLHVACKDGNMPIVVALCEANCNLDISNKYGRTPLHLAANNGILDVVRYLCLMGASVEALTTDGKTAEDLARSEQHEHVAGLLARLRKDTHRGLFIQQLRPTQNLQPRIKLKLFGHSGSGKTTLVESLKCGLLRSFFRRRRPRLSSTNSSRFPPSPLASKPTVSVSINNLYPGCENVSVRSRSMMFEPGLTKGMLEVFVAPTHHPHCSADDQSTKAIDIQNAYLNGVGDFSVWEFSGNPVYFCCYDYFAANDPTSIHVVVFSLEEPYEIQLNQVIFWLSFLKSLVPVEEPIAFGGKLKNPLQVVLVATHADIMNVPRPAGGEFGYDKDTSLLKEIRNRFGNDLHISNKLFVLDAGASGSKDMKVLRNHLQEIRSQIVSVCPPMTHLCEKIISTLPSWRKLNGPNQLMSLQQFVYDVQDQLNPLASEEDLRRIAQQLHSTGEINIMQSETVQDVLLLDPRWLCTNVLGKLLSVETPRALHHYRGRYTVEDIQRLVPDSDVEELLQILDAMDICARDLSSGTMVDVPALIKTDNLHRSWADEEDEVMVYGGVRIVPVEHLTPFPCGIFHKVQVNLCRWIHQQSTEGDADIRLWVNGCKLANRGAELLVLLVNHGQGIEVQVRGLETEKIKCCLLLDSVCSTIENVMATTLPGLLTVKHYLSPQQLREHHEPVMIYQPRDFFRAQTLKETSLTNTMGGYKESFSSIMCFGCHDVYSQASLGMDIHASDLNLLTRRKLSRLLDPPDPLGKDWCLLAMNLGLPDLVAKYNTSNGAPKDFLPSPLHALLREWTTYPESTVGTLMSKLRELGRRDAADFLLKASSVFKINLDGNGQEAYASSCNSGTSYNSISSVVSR

[11] = molecular target: Mitogen-activated protein kinase 1 (Homo sapiens, UniProt P28482); experiment: Selectivity interaction (KinomeScan (DiscoverX)) EUB0000045b MAPK1
Sequence of Mitogen-activated protein kinase 1 (P28482 whole entry): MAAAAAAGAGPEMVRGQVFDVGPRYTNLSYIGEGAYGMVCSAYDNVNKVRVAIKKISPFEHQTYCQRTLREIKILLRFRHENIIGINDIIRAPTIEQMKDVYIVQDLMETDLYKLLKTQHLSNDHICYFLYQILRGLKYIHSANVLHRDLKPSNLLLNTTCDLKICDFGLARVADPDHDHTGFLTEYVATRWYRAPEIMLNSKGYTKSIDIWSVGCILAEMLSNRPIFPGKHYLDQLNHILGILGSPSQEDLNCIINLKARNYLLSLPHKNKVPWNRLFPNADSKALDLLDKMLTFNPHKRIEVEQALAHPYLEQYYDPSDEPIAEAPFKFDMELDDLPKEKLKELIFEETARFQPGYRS

[12] = molecular target: Dual specificity tyrosine-phosphorylation-regulated kinase 1A (Homo sapiens, UniProt Q13627); experiment: Selectivity interaction (Kinase panel (literature)) EUB0001199aCl DYRK1A; conditions: at 1 µM
[13] = system: Hepatocyte growth factor receptor (Homo sapiens), P08581 [M1250T]; experiment: (§1) Selectivity interaction (KinomeScan (DiscoverX)) EUB0000618a MET; conditions: at 10 µM
[14] = system: Hepatocyte growth factor receptor (Homo sapiens), P08581 [Y1235D]; experiment: as §1; conditions: at 10 µM
[15] = molecular target: Hepatocyte growth factor receptor (Homo sapiens, UniProt P08581); experiment: as §1; conditions: at 10 µM

Sequence of MAP kinase-interacting serine/threonine-protein kinase 2 (Q9HBH9 whole entry, looked up): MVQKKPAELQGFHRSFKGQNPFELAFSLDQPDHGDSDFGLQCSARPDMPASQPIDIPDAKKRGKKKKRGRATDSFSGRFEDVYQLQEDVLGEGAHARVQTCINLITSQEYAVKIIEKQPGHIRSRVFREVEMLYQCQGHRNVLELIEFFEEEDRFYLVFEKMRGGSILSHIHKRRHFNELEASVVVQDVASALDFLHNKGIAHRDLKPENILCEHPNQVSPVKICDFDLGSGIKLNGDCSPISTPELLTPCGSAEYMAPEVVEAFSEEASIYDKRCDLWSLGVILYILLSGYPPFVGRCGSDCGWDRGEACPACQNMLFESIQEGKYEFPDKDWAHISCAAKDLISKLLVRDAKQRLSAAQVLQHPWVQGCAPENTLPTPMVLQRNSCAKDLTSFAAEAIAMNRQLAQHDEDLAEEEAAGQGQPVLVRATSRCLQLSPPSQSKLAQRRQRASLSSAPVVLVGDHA

CCN(CC)CCCCNc1ncc2cc(-c3cc(OC)cc(OC)c3)c(NC(=O)NC(C)(C)C)nc2n1
% of control [1]: 100%

CCC(=O)N1CCN(c2ccc(-n3c(=O)ccc4cnc5ccc(-c6cnc7ccccc7c6)cc5c43)cc2C(F)(F)F)CC1
% of control [2]: 100%

CN(C)CCOc1ccc(-c2nc(-c3ccncc3)c(-c3ccc4c(c3)CC/C4=N\O)[nH]2)cc1
% of control [3]: 59%

C=CC(=O)Nc1cccc(C(=O)Nc2ccc(Nc3cc(-c4[nH]c(SC)nc4C)ccn3)cc2)c1
% of control ([4]; at 1 µM): 94%
% of control ([4]; at 5 µM): 87%

C=CC(=O)Nc1ccc(C(=O)Nc2[nH]nc3c2CN(C(=O)N[C@H](CN(C)C)c2ccccc2)C3(C)C)cc1
% of engagement [5]: -2.5%

CCc1cccc(CC)c1NC(=O)c1nn(C)c2c1CCc1cnc(Nc3ccc(C(=O)NC4CCN(C)CC4)cc3OC(F)(F)F)nc1-2
IC50 [6]: > 10 µM

CC[C@@H]1[C@H](F)C(=O)N[C@@H]1COc1nccc2cc(C(N)=O)c(OC)cc12 [ZIMLOVISERTIB]
% of inhibition [7]: -10.7%
% of inhibition [8]: 2.7%

C=CC(=O)Nc1cc(-n2c(=O)ccc3cnc4ccc(-c5ccc(NS(C)(=O)=O)cc5)cc4c32)ccc1C
% of control ([9]; at 1 µM): 100%
% of control ([9]; at 10 µM): 100%
% of control ([10]; at 1 µM): 96%
% of control ([10]; at 10 µM): 61%
% of control ([11]; at 1 µM): 94%
% of control ([11]; at 10 µM): 100%

CN1Cc2nccc(-c3cn(C)nc3-c3ccc(F)cc3)c2C1=O
% of inhibition [12]: -3%

O[C@H]1CC[C@H](Nc2ncc3nc(Nc4c(F)cc(F)cc4F)n([C@H]4CCOC4)c3n2)CC1
% of control [13]: 100%
% of control [14]: 100%
% of control [15]: 100%
